Data as given in PubChem BioAssay AID248 (DTP/NCI, 2004).
Several values for one entry are separate records, joined by “and”; a condition that tells them apart may be missing. Equal entries are not always repeated. Toxic doses and inconclusive results are not listed. No stated cut-off is given here; in the data, active means T/C of 150% or more; inactive means T/C below 125%.

Test system: L1210 leukemia ip in BDF1 mice, survival T/C
Assay: NCI In Vivo Anticancer Drug Screen. Data for tumor model L1210 Leukemia (intraperitoneal) in B6D2F1 (BDF1) mice
Conditions: endpoint: mean survival time, higher = longer survival
Procedure, shortened: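 Tumor was transplanted into mice, which were then dosed with test compound or vehicle alone. Survival was recorded for each group, and the treated figure was expressed relative to the control figure.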

[1] = dose: 100.0 mg/kg/injection, schedule: Q01DX009 (ip), vehicle: saline with Tween-80
[2] = dose: 200.0 mg/kg/injection, schedule: Q01DX009 (ip), vehicle: saline with Tween-80
[3] = dose: 400.0 mg/kg/injection, schedule: Q01DX009 (ip), vehicle: saline with Tween-80

Measured: T/C

CC(C)(N)C(=O)O
inactive: dose: 100.0 mg/kg/injection, schedule: Q04DX003 (ip), vehicle: saline sonified 101 % of control | dose: 200.0 mg/kg/injection, schedule: Q04DX003 (ip), vehicle: saline sonified 98 % of control | dose: 400.0 mg/kg/injection, schedule: Q04DX003 (ip), vehicle: saline sonified 98 % of control

Cc1ccc(/C([O-])=C(\C(=S)Nc2cccc(C)c2)[n+]2ccccc2)cc1
inactive: [1] 103 % of control and 112 % of control | dose: 100.0 mg/kg/injection, schedule: Q04DX002 (ip), vehicle: saline with Tween-80 93 % of control and 95 % of control | [2] 93 % of control and 100 % of control | dose: 200.0 mg/kg/injection, schedule: Q04DX002 (ip), vehicle: saline with Tween-80 93 % of control and 115 % of control | [3] 95 % of control and 101 % of control | dose: 400.0 mg/kg/injection, schedule: Q04DX002 (ip), vehicle: saline with Tween-80 98 % of control and 107 % of control

ON=C(CSCc1ccccc1)CSCc1ccccc1
inactive: dose: 50.0 mg/kg/injection, schedule: Q01DX009 (ip), vehicle: saline with Tween-80 101 % of control | [1] 101 % of control | [2] 100 % of control | [3] 101 % of control

C=CCNC(=O)c1ccc[n+](CC(=O)NCCCCCCCCCC)c1
inactive: dose: 12.5 mg/kg/injection, schedule: Q04DX003 (ip), vehicle: saline with Tween-80 95 % of control | dose: 25.0 mg/kg/injection, schedule: Q04DX003 (ip), vehicle: saline with Tween-80 101 % of control | dose: 50.0 mg/kg/injection, schedule: Q04DX003 (ip), vehicle: saline with Tween-80 94 % of control

C/C=C/C(=O)Nc1cccc(C)c1C
inactive: dose: 100.0 mg/kg/injection, schedule: Q01DX009 (ip), vehicle: Klucel (hydroxypropylcellulose) (HPC) 93 % of control and 95 % of control | dose: 200.0 mg/kg/injection, schedule: Q01DX009 (ip), vehicle: Klucel (hydroxypropylcellulose) (HPC) 100 % of control | dose: 400.0 mg/kg/injection, schedule: Q01DX009 (ip), vehicle: Klucel (hydroxypropylcellulose) (HPC) 92 % of control

O=C(C#Cc1ccccc1)c1ccccc1
inactive: dose: 5.0 mg/kg/injection, schedule: Q01DX009 (ip), vehicle: Klucel (hydroxypropylcellulose) (HPC) 98 % of control | dose: 5.0 mg/kg/injection, schedule: Q04DX003 (ip), vehicle: Klucel (hydroxypropylcellulose) (HPC) 101 % of control | dose: 10.0 mg/kg/injection, schedule: Q01DX009 (ip), vehicle: Klucel (hydroxypropylcellulose) (HPC) 96 % of control | dose: 10.0 mg/kg/injection, schedule: Q04DX003 (ip), vehicle: Klucel (hydroxypropylcellulose) (HPC) 103 % of control | dose: 20.0 mg/kg/injection, schedule: Q01DX001 (ip), vehicle: Klucel (hydroxypropylcellulose) (HPC) 96 % of control | dose: 20.0 mg/kg/injection, schedule: Q01DX009 (ip), vehicle: Klucel (hydroxypropylcellulose) (HPC) 102 % of control | dose: 20.0 mg/kg/injection, schedule: Q04DX003 (ip), vehicle: Klucel (hydroxypropylcellulose) (HPC) 104 % of control

Nc1c(Cl)c(Cl)c2c(c1Cl)C(O)c1cc(Cl)ccc1-2 (stereo unspecified)
inactive: dose: 100.0 mg/kg/injection, schedule: Q01DX001 (ip), vehicle: carboxymethylcellulose (CMC) 89 % of control | dose: 200.0 mg/kg/injection, schedule: Q01DX001 (ip), vehicle: carboxymethylcellulose (CMC) 95 % of control | dose: 400.0 mg/kg/injection, schedule: Q01DX001 (ip), vehicle: carboxymethylcellulose (CMC) 93 % of control

CN1CCN(c2c3c(nc4ccccc24)CCCC3)CC1
inactive: dose: 100.0 mg/kg/injection, schedule: Q01DX001 (ip), vehicle: saline 96 % of control

CC1(C)CC[N+]1(C)Cc1ccccc1 (stereo unspecified)
inactive: dose: 6.25 mg/kg/injection, schedule: Q01DX009 (ip), vehicle: saline 95 % of control | dose: 6.25 mg/kg/injection, schedule: Q04DX003 (ip), vehicle: saline 90 % of control | dose: 12.0 mg/kg/injection, schedule: Q01DX001 (ip), vehicle: saline 102 % of control | dose: 12.5 mg/kg/injection, schedule: Q01DX009 (ip), vehicle: saline 109 % of control | dose: 12.5 mg/kg/injection, schedule: Q04DX003 (ip), vehicle: saline 101 % of control | dose: 25.0 mg/kg/injection, schedule: Q01DX001 (ip), vehicle: saline 97 % of control | dose: 25.0 mg/kg/injection, schedule: Q01DX009 (ip), vehicle: saline 97 % of control | dose: 25.0 mg/kg/injection, schedule: Q04DX003 (ip), vehicle: saline 91 % of control

CCOC(c1ccccc1)(c1ccccc1)c1ccccc1
inactive: dose: 100.0 mg/kg/injection, schedule: Q04DX003 (ip), vehicle: saline with Tween-80 101 % of control | dose: 200.0 mg/kg/injection, schedule: Q04DX003 (ip), vehicle: saline with Tween-80 90 % of control | dose: 400.0 mg/kg/injection, schedule: Q04DX003 (ip), vehicle: saline with Tween-80 91 % of control
